This note sets out measurements from ChEMBL document CHEMBL3045837, “Tobacco mosaic virus (TMV) inhibitors from Picrasma quassioides Benn” (J Agric Food Chem, 2009).

Activity calls are given as the source filed them. The calls are words filed in the database; no cut-off is given here.

Assay [1] relates to Tobacco mosaic virus. Description: Antiviral activity against Tobacco mosaic virus U1 (TMV) infected Nicotiana tabacum cv. K326 leaves assessed as inhibition of viral replication at 50 ug/mL measured 48 hr after compound exposure by leaf-disk method. The format is functional. As to conditions: U1, 48 h.
The subject of assay [2] is Tobacco mosaic virus. Put plainly: Antiviral activity against Tobacco mosaic virus U1 (TMV) infected Nicotiana glutinosa leaves assessed as inhibition of viral replication at 50 ug/mL measured 48 hr after compound exposure by half leaf method. The format is functional. As to conditions: U1, in Nicotiana glutinosa.
The subject of assay [3] is Tobacco mosaic virus. Description: Antiviral activity against Tobacco mosaic virus U1 (TMV) infected Nicotiana tabacum cv. K326 leaves assessed as inhibition of viral replication in presence of 25 ug/mL quassinoid nigakilactone B measured 48 hr after compound exposure by leaf-disk method. The format is functional, organism-based. The settings on record: U1, 48 h.
The subject of assay [4] is Tobacco mosaic virus. Put plainly: Antiviral activity against Tobacco mosaic virus U1 (TMV) infected Nicotiana tabacum cv. K326 leaves assessed as inhibition of viral replication at 50 ug/mL in presence of 25 ug/mL quassinoid nigakilactone B measured 48 hr after compound exposure by leaf-disk method. The format is functional.
For assay [5], the system named is Tobacco mosaic virus. Description: Antiviral activity against Tobacco mosaic virus U1 (TMV) infected Nicotiana glutinosa leaves assessed as inhibition of viral infection at 50 ug/mL using compound pre-treated virus suspension measured 5 to 6 days after compound exposure. The format is functional. As to conditions: U1, in Nicotiana glutinosa.
Assay [6] has as its system Tobacco mosaic virus. Description: Antiviral activity against Tobacco mosaic virus U1 (TMV) infected Nicotiana tabacum cv. K326 leaves assessed as inhibition of viral replication measured 48 hr after compound exposure by leaf-disk method. The format is functional, organism-based. The settings on record: U1, 48 h.
Assay [7] relates to Tobacco mosaic virus. Description: Antiviral activity against Tobacco mosaic virus U1 (TMV) infected Nicotiana glutinosa leaves assessed as inhibition of viral replication at 50 ug/mL in presence of 25 ug/mL quassinoid nigakilactone B measured 48 hr after compound exposure by half leaf method. The format is functional.
For assay [8], the system named is Tobacco mosaic virus. Description: Antiviral activity against Tobacco mosaic virus U1 (TMV) infected Nicotiana glutinosa leaves assessed as inhibition of viral infection at 50 ug/mL using compound pre-treated virus suspension in presence of 25 ug/mL quassinoid nigakilactone B measured 5 to 6 days after compound exposure. The format is functional.
Assay [9] has as its system Tobacco mosaic virus. Description: Inhibition of Tobacco mosaic virus U1 (TMV) coat protein accumulation using virus infected Nicotiana tabacum cv. K326 leaves at 50 ug/mL by SDS-PAGE and Western blotting method. The format is functional, organism-based. In general terms: Immunoblotting shows a protein as a band on a membrane.
Assay [10] concerns Tobacco mosaic virus. Description: Inhibition of Tobacco mosaic virus U1 (TMV) coat protein accumulation using virus infected Nicotiana tabacum cv. K326 leaves by SDS-PAGE and Western blotting method. The format is functional, organism-based.

Usually inhibition stands for the share of the control response that was lost under treatment. For orientation: EC50 means the concentration needed to bring the measured effect to its halfway point. On to `COc1c(OC)c2nccc3c4ccccc4n(c1=O)c23` [4,5-DIMETHOXYCANTHIN-6-ONE], for which the inhibition at 50 µg/mL in the assay with Tobacco mosaic virus [1] was 42.6%; with Tobacco mosaic virus [2], 33.3%; with Tobacco mosaic virus [5], 58.3%. Moreover, the figures for the EC50 in the assay on Tobacco mosaic virus [3] and in the assay with Tobacco mosaic virus [6] were 130 µM and 189 µM, respectively. The “inhibition (INH)” value in the assay with Tobacco mosaic virus [4] was 59%; in the assay on Tobacco mosaic virus [7] it was 43.8%; in the assay on Tobacco mosaic virus [8], 61.1%.
For `COc1cccc2c1[nH]c1c(CCC(=O)c3nccc4c3[nH]c3ccccc34)ncc(OC)c12`, the inhibition at 50 µg/mL in the assay with Tobacco mosaic virus [1] is 28.9%; with Tobacco mosaic virus [2] it was 39.4%; in the assay with Tobacco mosaic virus [5] it was 45.5%. The EC50 is 78 µM with Tobacco mosaic virus [3] and 131 µM in the assay with Tobacco mosaic virus [6]. The figures for the “inhibition (INH)” value in the assay with Tobacco mosaic virus [4], in the assay with Tobacco mosaic virus [7] and in the assay on Tobacco mosaic virus [8] were 64.8%, 52.4% and 68.3%, respectively.
For `COC(=O)c1ncc(O)c2c1[nH]c1ccccc12`, the inhibition at 50 µg/mL with Tobacco mosaic virus [1] was 45.7%; with Tobacco mosaic virus [2], 41.7%; in the assay with Tobacco mosaic virus [5], 60%. Further, the “inhibition (INH)” value in the assay with Tobacco mosaic virus [4] came out at 62.3%; in the assay on Tobacco mosaic virus [7], 55.6%; in the assay with Tobacco mosaic virus [8], 69.2%.
Regarding `C=Cc1ncc(OC)c2c1[nH]c1c(OC)cccc12`, the inhibition at 50 µg/mL in the assay with Tobacco mosaic virus [1] was 39.7%; in the assay on Tobacco mosaic virus [2], 38.5%; in the assay with Tobacco mosaic virus [5], 53.3%. For the same compound, the entries for the “inhibition (INH)” value in the assay on Tobacco mosaic virus [4], with Tobacco mosaic virus [7] and in the assay with Tobacco mosaic virus [8] were 63%, 47.1% and 58.3%, respectively.
`O=C1NC(=O)c2[nH]c3ccccc3c2C1=O`: the figures for the inhibition at 50 µg/mL in the assay on Tobacco mosaic virus [1], in the assay with Tobacco mosaic virus [2] and in the assay on Tobacco mosaic virus [5] were 29.5%, 29.4% and 44.4%, respectively. For the same compound, the figures for the “inhibition (INH)” value with Tobacco mosaic virus [4], in the assay on Tobacco mosaic virus [7] and in the assay with Tobacco mosaic virus [8] were 35.8%, 33.3% and 52.1%, respectively.
With `COc1c(O)c2nccc3c4ccccc4n(c1=O)c23` [PICRASIDINE Q], the inhibition at 50 µg/mL came out at 25.6% in the assay on Tobacco mosaic virus [1], 35.7% with Tobacco mosaic virus [2] and 42.9% with Tobacco mosaic virus [5]. Further, the “inhibition (INH)” value in the assay on Tobacco mosaic virus [4] is 52.6%; in the assay on Tobacco mosaic virus [7], 53.8%; in the assay with Tobacco mosaic virus [8] it was 66.7%.
As to `CNCC(=O)N[C@@H](CO)C(=O)N[C@H]1[C@H](O)[C@@H](O)[C@H](n2ccc(N)nc2=O)O[C@@H]1C(N)=O` [NINGNANMYCIN], the inhibition at 50 µg/mL in the assay on Tobacco mosaic virus [1] turned out to be 51%; in the assay on Tobacco mosaic virus [2] it was 54.5%; with Tobacco mosaic virus [5], 60%. Also, the EC50 was determined as 129 µM in the assay on Tobacco mosaic virus [3] and 135 µM with Tobacco mosaic virus [6]. Also, the results for the “inhibition (INH)” value with Tobacco mosaic virus [4], in the assay on Tobacco mosaic virus [7] and in the assay with Tobacco mosaic virus [8] were 52.6%, 53.8% and 55.6%, respectively.
Take `CCc1nccc2c1[nH]c1c(OC)cccc12`: the inhibition at 50 µg/mL with Tobacco mosaic virus [1] was 20.9%; with Tobacco mosaic virus [2] it was 25%; in the assay with Tobacco mosaic virus [5], 45.5%. For the same compound, the “inhibition (INH)” value in the assay with Tobacco mosaic virus [4] is reported as 48.4%; in the assay on Tobacco mosaic virus [7], 36.4%; in the assay on Tobacco mosaic virus [8], 50%.
Take `COc1cc2nccc3c4ccccc4n(c1=O)c23` [5-METHOXYCANTHINONE]: the figures for the inhibition at 50 µg/mL in the assay with Tobacco mosaic virus [1], with Tobacco mosaic virus [2] and in the assay on Tobacco mosaic virus [5] were 27.5%, 40% and 36.4%, respectively. Also, the figures for the “inhibition (INH)” value in the assay with Tobacco mosaic virus [4], with Tobacco mosaic virus [7] and in the assay with Tobacco mosaic virus [8] were 45.7%, 50% and 58.3%, respectively.
For `COC1=C[C@@H](C)[C@@H]2C[C@H]3OC(=O)C[C@H]4[C@@H](C)[C@H](OC)[C@@H](O)[C@H]([C@@]2(C)C1=O)[C@@]34C` [NIGAKILACTONE B], the inhibition entry with Tobacco mosaic virus [9] is “inactive”. Moreover, the inhibition at 50 µg/mL in the assay on Tobacco mosaic virus [1] stood at 3.2%; in the assay with Tobacco mosaic virus [2], 6.7%; in the assay on Tobacco mosaic virus [5], 10%.
On to `COc1cccc2c3c([nH]c12)C(=O)NC(=O)C3=O`, for which the inhibition at 50 µg/mL came out at 35.1% in the assay on Tobacco mosaic virus [1], 39.5% in the assay on Tobacco mosaic virus [2] and 50% in the assay on Tobacco mosaic virus [5]. The EC50 came to 183 µM in the assay on Tobacco mosaic virus [3] and 257 µM with Tobacco mosaic virus [6]. The “inhibition (INH)” value with Tobacco mosaic virus [4] is 59.8%; in the assay on Tobacco mosaic virus [7], 47.3%; in the assay with Tobacco mosaic virus [8], 55.9%.
Regarding `COC(=O)c1nccc2c1[nH]c1ccccc12`, the inhibition at 50 µg/mL in the assay with Tobacco mosaic virus [1] turned out to be 60.4%; in the assay on Tobacco mosaic virus [2] it was 47.4%; in the assay on Tobacco mosaic virus [5], 71.4%. The EC50 came out at 115 µM in the assay with Tobacco mosaic virus [3] and 179 µM in the assay on Tobacco mosaic virus [6]. Further, in the assay with Tobacco mosaic virus [10], the inhibition entry is “Dose-dependent effect”. The “inhibition (INH)” value in the assay with Tobacco mosaic virus [4] stood at 71.9%; in the assay on Tobacco mosaic virus [7], 68.4%; with Tobacco mosaic virus [8] it was 73.3%.
